Source: patent US6441195B1, “Substituted sulphonylamino(thio) carbonyl compounds” (Bayer Aktiengesellschaft, priority 1995, dated 2002)

Tests used:
Assay type in all cases: in vivo
[1] = test system: Matricaria; assay: Pre-emergence test/Greenhouse, Matricaria; settings: after three weeks
Procedure: (§1) To produce a suitable preparation of the active compound, 1 part by weight of active compound is mixed with the stated amount of solvent, the stated amount of emulsifier is added and the concentrate is diluted with water to the desired concentration.
(§2) Seeds of the test plants are sown in normal soil. After about 24 hours, the soil is watered with the preparation of active compound. Advantageously, the amount of water per unit area is kept constant. The active compound concentration in the preparation is not important, only the active compound appliation rate per unit area matters.
(§3) After three weeks, the degree of damage to the plants is rated in % damage in comparison to the development of the untreated control.
(§4) 0%=no action (like untreated control)

[2] = test system: Soya beans; assay: Pre-emergence test/Greenhouse, Soya beans
Procedure: as §1, §2, §3, §4

[3] = test system: Poa; assay: Pre-emergence test/Greenhouse, Poa; settings: after three weeks
Procedure: as §1, §2, §3, §4

[4] = test system: Solanum; assay: Pre-emergence test/Greenhouse, Solanum; settings: after three weeks
Procedure: as §1, §2, §3, §4

[5] = test system: Ambrosia; assay: Pre-emergence test/Greenhouse, Ambrosia; settings: after three weeks
Procedure: as §1, §2, §3, §4

[6] = test system: Maize; assay: Pre-emergence test/Greenhouse, Maize
Procedure: as §1, §2, §3, §4

[7] = test system: weeds; assay: Pre-emergence test (greenhouse), activity against weeds; settings: in words
Procedure: Solvent: 5 parts by weight of acetone
Emulsifier: 1 part by weight of alkylaryl polyglycol ether
as §1, §2, §3, §4

[8] = test system: Lolium; assay: Pre-emergence test/Greenhouse, Lolium; settings: after three weeks
Procedure: as §1, §2, §3, §4

[9] = test system: Sorghum; assay: Pre-emergence test/Greenhouse, Sorghum; settings: after three weeks
Procedure: as §1, §2, §3, §4

[10] = pre-emergence, 60 g of ai./ha, after three weeks

SMILES | degree of damage to the plants (% damage vs untreated control), Matricaria ([1]; 60 g of ai./ha) [%] | degree of damage to the plants (% damage vs untreated control), Poa ([3]; 60 g of ai./ha) [%] | degree of damage to the plants (% damage vs untreated control), Solanum ([4]; 60 g of ai./ha) [%] | degree of damage to the plants (% damage vs untreated control), Ambrosia ([5]; 60 g of ai./ha) [%] | activity against weeds [7] | degree of damage to the plants (% damage vs untreated control), Lolium ([8]; 60 g of ai./ha) [%] | degree of damage to the plants (% damage vs untreated control), Matricaria ([1]; 125 g of ai./ha) [%] | degree of damage to the plants (% damage vs untreated control), Poa ([3]; 125 g of ai./ha) [%] | degree of damage to the plants (% damage vs untreated control), Sorghum ([9]; 125 g of ai./ha) [%] | degree of damage to the plants (% damage vs untreated control), Solanum ([4]; 125 g of ai./ha) [%] | degree of damage to the plants (% damage vs untreated control), Ambrosia ([5]; 125 g of ai./ha) [%] | degree of damage to the plants (% damage vs untreated control), Maize ([6]; in vivo) [%] | degree of damage to the plants (% damage vs untreated control), Lolium ([8]; 125 g of ai./ha) [%] | also measured
CCOn1c(SCC)nn(C(=O)NS(=O)(=O)c2c(C)cccc2C(=O)OC)c1=O [Example 3, 4-ethoxy-5-ethylthio-2-(2-methyl-6-methoxy-carbonyl-phenylsulphonylaminocarbonyl)-2,4-dihydro-3H-1,2,4-triazol-3-one] | 95 | 70 | 80 | 80 | very strong activity against weeds | 90 | – | – | – | – | – | – | – | degree of damage to the plants (% damage vs untreated control), Soya beans [2, 10]: 20%; degree of damage to the plants (% damage vs untreated control), Maize [6, 10]: 10%
COC(=O)c1cccc(C)c1S(=O)(=O)NC(=O)c1noc(C)n1 [Example 9] | – | – | – | – | very strong activity against weeds | – | 90 | 80 | 60 | 95 | 95 | 0 | 80 | –
COC(=O)c1scc(C)c1S(=O)(=O)NC(=O)c1noc(C)n1 [Example 13] | – | – | – | – | very strong activity against weeds | – | 95 | 80 | 70 | 90 | 95 | 30 | 90 | –
CCn1c(OC)nn(C(=O)NS(=O)(=O)c2c(C)cccc2C(=O)OC(C)C)c1=O [Example 19] | 95 | 95 | 90 | 95 | very strong activity against weeds | 95 | – | – | – | – | – | 0 | – | degree of damage to the plants (% damage vs untreated control), Soya beans ([2]; in vivo): 0%
CCCOc1nn(C(=O)NS(=O)(=O)c2c(C)csc2C(=O)OC)c(=O)n1C [Example 33] | – | – | – | – | very strong activity against weeds | – | 95 | 90 | 80 | 95 | 90 | 10 | – | –
CCCc1nn(C(=O)NS(=O)(=O)c2c(C)csc2C(=O)OC)c(=O)n1C [Example 35] | 100 | 95 | 95 | 95 | very strong activity against weeds | 95 | – | – | – | – | – | 0 | – | degree of damage to the plants (% damage vs untreated control), Sorghum ([9]; 60 g of ai./ha): 95%
CCn1c(OC)nn(C(=O)NS(=O)(=O)c2c(C)csc2C(=O)OC)c1=O [Example 37] | 95 | 70 | 90 | 80 | very strong activity against weeds | 90 | – | – | – | – | – | 10 | – | degree of damage to the plants (% damage vs untreated control), Soya beans ([2]; in vivo): 10%
CCCc1nn(C(=O)NS(=O)(=O)c2c(C)csc2C(=O)OC)c(=O)n1OC [Example 39] | 70 | 90 | 90 | 95 | very strong activity against weeds | 95 | – | – | – | – | – | 0 | – | degree of damage to the plants (% damage vs untreated control), Soya beans ([2]; in vivo): 20%
CCOc1nn(C(=O)NS(=O)(=O)c2c(C)csc2C(=O)OC)c(=O)n1CC [Example 41] | 95 | 80 | 90 | 95 | very strong activity against weeds | 60 | – | – | – | – | – | 0 | – | degree of damage to the plants (% damage vs untreated control), Sorghum ([9]; 60 g of ai./ha): 60%
CCOc1nn(C(=O)NS(=O)(=O)c2c(C)cccc2C(=O)OC(C)C)c(=O)n1C1CC1 [Example 46] | – | – | – | – | very strong activity against weeds | – | – | – | – | – | – | 0 | – | degree of damage to the plants (% damage vs untreated control), Matricaria ([1]; 8 g of ai./ha): 95%; degree of damage to the plants (% damage vs untreated control), Poa ([3]; 8 g of ai./ha): 95%; degree of damage to the plants (% damage vs untreated control), Sorghum ([9]; 8 g of ai./ha): 80%; degree of damage to the plants (% damage vs untreated control), Solanum ([4]; 8 g of ai./ha): 95%; degree of damage to the plants (% damage vs untreated control), Ambrosia ([5]; 8 g of ai./ha): 95%; degree of damage to the plants (% damage vs untreated control), Lolium ([8]; 8 g of ai./ha): 80%
CCOC(=O)c1scc(C)c1S(=O)(=O)NC(=O)n1nc(SC)n(C)c1=O [Example 55] | – | – | – | – | very strong activity against weeds | – | 100 | 90 | 60 | 100 | 100 | 10 | 100 | –
CCOC(=O)c1scc(C)c1S(=O)(=O)NC(=O)n1nc(SCC)n(C)c1=O [Example 56] | – | – | – | – | very strong activity against weeds | – | 100 | 80 | – | 95 | – | – | 60 | degree of damage to the plants (% damage vs untreated control), Soya beans ([2]; in vivo): 0%
CCOC(=O)c1scc(C)c1S(=O)(=O)NC(=O)n1nc(OC)n(C)c1=O [Example 57] | 95 | 95 | 95 | – | very strong activity against weeds | 95 | – | – | – | – | – | 0 | – | degree of damage to the plants (% damage vs untreated control), Sorghum ([9]; 60 g of ai./ha): 95%
CCOC(=O)c1scc(C)c1S(=O)(=O)NC(=O)n1nc(CC)n(OCC)c1=O [Example 61] | – | – | – | – | very strong activity against weeds | – | 95 | 95 | 80 | 95 | 100 | 0 | 95 | –
CCOC(=O)c1scc(C)c1S(=O)(=O)NC(=O)n1nc(OCC(F)(F)F)n(C)c1=O [Example 62] | – | – | – | – | very strong activity against weeds | – | 95 | 90 | 60 | 95 | – | 0 | 80 | –
CCOC(=O)c1scc(C)c1S(=O)(=O)NC(=O)n1nc(C)n(C)c1=O [Example 65] | – | – | – | – | very strong activity against weeds | – | 95 | 80 | 80 | 95 | – | 20 | 80 | –
C=CCn1c(SCCF)nn(C(=O)NS(=O)(=O)c2c(C)cccc2C(=O)OC)c1=O [Example 153] | – | – | – | – | very strong activity against weeds | – | 70 | 95 | – | 95 | 95 | 0 | – | degree of damage to the plants (% damage vs untreated control), Soya beans ([2]; in vivo): 30%
